# According to patent US11339169B2, “P2X3 and/or P2X2/3 compounds and methods” (Asana BioSciences, LLC, priority 2016, dated 2022):
# pIC50: −log10 of the molar value.
# Target: T1, hP2X3 (Homo sapiens, UniProt P56373)
# T1 construct: host or cells: HEK (hP2X3-HEK)
# T1 sequence (P56373 1-397): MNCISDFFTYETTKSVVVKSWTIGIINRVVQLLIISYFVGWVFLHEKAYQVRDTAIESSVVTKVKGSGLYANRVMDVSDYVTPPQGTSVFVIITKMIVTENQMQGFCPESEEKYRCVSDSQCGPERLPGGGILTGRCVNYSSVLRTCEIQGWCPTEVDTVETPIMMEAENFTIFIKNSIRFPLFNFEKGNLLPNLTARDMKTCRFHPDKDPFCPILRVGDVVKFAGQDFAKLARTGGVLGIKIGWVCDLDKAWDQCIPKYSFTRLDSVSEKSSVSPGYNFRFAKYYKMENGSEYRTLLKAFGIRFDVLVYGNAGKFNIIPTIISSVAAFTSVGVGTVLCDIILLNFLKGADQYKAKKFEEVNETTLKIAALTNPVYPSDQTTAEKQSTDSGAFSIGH
# Test: FLIPR intracellular calcium assay, hP2X3
# Assay type: cell-based
# Conditions: human P2X3-HEK cells, agonist at EC75
# From the text: (§1) The FLIPR® assay utilizes cells which express human or rat P2X3 or P2X2/3 receptors. Recombinant cells expressing hP2X3 (Cat #6188) and hP2X2/3 (Cat #6179) were procured from Chantest Corp. Rat P2X2 (NCBI Accession No: U14414) was amplified by PCR from PC12 cDNA (a rat adrenal medulla cell line). The PCR product obtained containing the protein coding sequence of rat P2X2 was cloned into EcoRV-digested and dephosphorylated vector plRES-puro3 within the multiple cloning site (MCS). See, FIG. 1A.
# (§2) (i) Intracellular Calcium Assay Protocol for Screening Compounds
# (§3) Cryo-vial containing 6×10^6 cells (human P2X3-HEK/human P2X2/3-TRex293/rat P2X2/3-TRex293/rat P2X3 TRex-CHO) was thawed in a 37° C. water bath. Cells were suspended in 20 mL of respective cell plating media (See annexure for composition) in a 50 mL centrifuge tube. The cell viability was checked with the help of Trypan Blue dye. Upon washing, cells were plated in a black 384-well clear bottomed, sterile poly-D-lysine coated plate such that, each well contained 10,000 cells (15,000/well for hP2X3) in 30 μL cell plating media. The plate was incubated in a 5% CO2 incubator at 37° C. for 24 h.
# (§4) The next day, prior to the assay, the cell plating media was removed from each well by decanting and gentle tapping. Thirty μL of FLIPR Calcium 4 dye solution was added to each well. The plate was incubated at 37° C. for 45 min (60 min for hP2X3). The plate was next equilibrated at room temperature for 15 minutes before placing it in a 384 well FLIPR for the assay.
# (§5) Compounds were dissolved in DMSO and serially diluted following 11 point half log (3.16 fold) dilution with a starting concentration of 2 mM. Dilutions were mixed with assay buffer just before performing the assay.
# (§6) Compounds were added to the respective wells of the assay-ready cell plate with the help of the FLIPR and fluorescence readings were captured for 5 min to observe any possible agonistic property of the compounds. The plate was then incubated at room temperature for 15 min. The cells were stimulated with respective agonist EC75 concentration and the fluorescence readings were captured for another 5 min by FLIPR. The difference in fluorescence readings in presence of the compounds were compared with that of the control wells (wells having no compound) to calculate the inhibitory potency of the compounds. The IC50 values of the compounds were determined using the Graph pad Prism software.
# (§7) (ii) Cell Plating Media for hP2X3-HEK and hP2X2/3-TRex293 Cells • DMEM/F12 (1:1) HAM media (Invitrogen; Cat #11039) • 1×NEAA (Invitrogen; Cat #11140) • 25 mM HEPES (Invitrogen; Cat #15630) • 1 mM sodium pyruvate (Invitrogen; Cat #11360) • 10% tetracycline negative FBS (PAA; Cat #A15-209) • 1 μg/mL doxycycline (Clontech; Cat #63131) [for hP2X2/3-TRex293 cells only]
# (§8) (v) Assay Buffer Composition • HBSS (Invitrogen Cat #14025) • 20 mM HEPES (Invitrogen Cat #15630) • 0.01% F127 (Sigma Cat #P2443) • 1.8 mM CaCl2 (Sigma Cat #C5080) • pH adjusted to 7.4
# (§9) (vi) Dye Solution Composition • 1× FLIPR Calcium 4 dye in assay buffer (Molecular devices Cat #R8141) • 1.8 mM Probenecid (Sigma Cat #P8761) • pH adjusted to 7.4
row,Compound,pIC50
1,C[C@@H](Nc1nc(N2CCN(C)C(=O)C2)nc2cnn(C3CCC3)c12)c1cnc2ccccc2c1 [Example 49],7.00 to 9.00
2,CCC(CC)n1ncc2nc(N3CCN(C(N)=O)CC3)nc(N[C@H](C)c3cnc4ccccc4c3)c21 [Example 51],7.00 to 9.00
3,CCC(C)n1ncc2nc(N3CCN(C(C)=O)CC3)nc(NC(C)c3ccc(-c4ccccc4)nc3)c21 (centres unmarked) [Example 52],7.00 to 9.00
4,CCC(CC)n1ncc2nc(N3CCN(C(C)=O)CC3)nc(NC(C)c3ccc4oc(C5CC5)cc4c3)c21 (centres unmarked) [Example 55],7.00 to 9.00
5,CCC(C)n1ncc2nc(N3CCN(C(C)=O)CC3)nc(N[C@@H](c3cnc4ccccc4c3)C3CC3)c21 (some centres unmarked) [Example 56],7.00 to 9.00
6,CCC(CC)n1ncc2nc(N3CCN(C(C)=O)CC3)nc(NC(C)c3ccc4sccc4c3)c21 (centres unmarked) [Example 57],7.00 to 9.00
7,CCC(C)n1ncc2nc(N3CCN(C(C)=O)CC3)nc(NC(c3ccc(-c4ccccc4)nc3)C3CC3)c21 (centres unmarked) [Example 58],7.00 to 9.00
8,CC(C)n1ncc2nc(N3CCN(C)C(=O)C3)nc(N[C@@H](c3cnc4ccccc4c3)C3CC3)c21 [Example 59],7.00 to 9.00

# Second part, the molecule after the results:
row,pIC50,Compound
1,7.00 to 9.00,CC(=O)N1CCN(c2nc(N[C@H](C)c3cnc4ccccc4c3)c3c(cnn3C(C)C(C)C)n2)CC1 (some centres unmarked) [Example 60]
2,7.00 to 9.00,CCC(CC)n1ncc2nc(N3CCN(C(C)=O)CC3)nc(N[C@H](C)c3cnc4ccc(F)cc4c3)c21 [Example 61]
3,7.00 to 9.00,CC(=O)N1CCN(c2nc(N[C@@H](c3cnc4ccccc4c3)C3CC3)c3c(cnn3C(C)C(C)C)n2)CC1 (some centres unmarked) [Example 62]
4,7.00 to 9.00,CCC(CC)n1ncc2nc(N3CCN(C(N)=O)CC3)nc(NCc3cnc4ccccc4c3)c21 [Example 64]
5,7.00 to 9.00,CCC(CC)n1ncc2nc(N3CCN(C(C)=O)CC3)nc(NC(c3cnc4ccc(F)cc4c3)C3CC3)c21 (centres unmarked) [Example 65]
6,7.00 to 9.00,CC(C)n1ncc2nc(N3CCN(C(N)=O)CC3)nc(N[C@@H](c3cnc4ccccc4c3)C3CC3)c21 [Example 66]
7,7.00 to 9.00,CC[C@H](C)n1ncc2nc(N3CCN(C(N)=O)CC3)nc(NC(C)c3cnc4cc(F)c(F)cc4c3)c21 (some centres unmarked) [Example 68]
8,7.00 to 9.00,CC[C@H](C)n1ncc2nc(N3CCN(C(N)=O)CC3)nc(N[C@@H](c3cnc4ccccc4c3)C3CC3)c21 [Example 69]
9,7.00 to 9.00,CC[C@@H](C)n1ncc2nc(N3CCN(C(N)=O)CC3)nc(N[C@@H](c3cnc4ccccc4c3)C3CC3)c21 [Example 70]
10,7.00 to 9.00,NC(=O)N1CCN(c2nc(N[C@@H](c3cnc4ccccc4c3)C3CC3)c3c(cnn3C3CCOCC3)n2)CC1 [Example 72]
11,7.00 to 9.00,CCC(CC)n1ncc2nc(-n3ccnn3)nc(N[C@@H](c3cnc4ccccc4c3)C3CC3)c21 [Example 74]

# Target: T2, hP2X2/3 (Homo sapiens, UniProt P56373+Q9UBL9)
# T2 construct: host or cells: TRex293 (hP2X2/3-TRex293), doxycycline-induced
# T2 sequence (P56373 1-397): T1 sequence (P56373 1-397)
# T2 sequence (Q9UBL9 1-471): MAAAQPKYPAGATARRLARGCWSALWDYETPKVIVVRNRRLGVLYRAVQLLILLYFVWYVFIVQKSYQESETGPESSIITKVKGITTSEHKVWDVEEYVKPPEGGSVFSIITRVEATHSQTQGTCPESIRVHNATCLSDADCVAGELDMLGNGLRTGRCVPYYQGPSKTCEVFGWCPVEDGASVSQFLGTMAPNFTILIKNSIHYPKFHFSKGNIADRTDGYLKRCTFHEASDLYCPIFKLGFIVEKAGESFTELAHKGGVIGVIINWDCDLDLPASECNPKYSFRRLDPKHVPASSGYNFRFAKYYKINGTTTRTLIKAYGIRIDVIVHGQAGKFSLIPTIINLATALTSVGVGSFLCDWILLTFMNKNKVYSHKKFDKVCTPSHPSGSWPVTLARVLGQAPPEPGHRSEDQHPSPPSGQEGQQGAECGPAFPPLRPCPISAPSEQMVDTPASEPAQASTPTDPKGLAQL
# Test: FLIPR intracellular calcium assay, hP2X2/3
# Assay type: cell-based
# Conditions: human P2X2/3-TRex293 cells, agonist at EC75
# From the text: as §1, §2, §3, §4, §5, §6, §7, §8, §9
row,Compound,pIC50
1,C[C@@H](Nc1nc(N2CCN(C)C(=O)C2)nc2cnn(C3CCC3)c12)c1cnc2ccccc2c1 [Example 49],5.00 to 6.00
2,CCC(CC)n1ncc2nc(N3CCN(C(N)=O)CC3)nc(N[C@H](C)c3cnc4ccccc4c3)c21 [Example 51],7.00 to 9.00
3,CCC(C)n1ncc2nc(N3CCN(C(C)=O)CC3)nc(NC(C)c3ccc(-c4ccccc4)nc3)c21 (centres unmarked) [Example 52],5.00 to 6.00
4,CCC(CC)n1ncc2nc(N3CCN(C(C)=O)CC3)nc(NC(C)c3ccc4oc(C5CC5)cc4c3)c21 (centres unmarked) [Example 55],6.00 to 7.00
5,CCC(C)n1ncc2nc(N3CCN(C(C)=O)CC3)nc(N[C@@H](c3cnc4ccccc4c3)C3CC3)c21 (some centres unmarked) [Example 56],6.00 to 7.00
6,CCC(CC)n1ncc2nc(N3CCN(C(C)=O)CC3)nc(NC(C)c3ccc4sccc4c3)c21 (centres unmarked) [Example 57],6.00 to 7.00
7,CCC(C)n1ncc2nc(N3CCN(C(C)=O)CC3)nc(NC(c3ccc(-c4ccccc4)nc3)C3CC3)c21 (centres unmarked) [Example 58],5.00 to 6.00
8,CC(C)n1ncc2nc(N3CCN(C)C(=O)C3)nc(N[C@@H](c3cnc4ccccc4c3)C3CC3)c21 [Example 59],6.00 to 7.00

# Other lines, results leading:
row,pIC50,Compound
1,6.00 to 7.00,CC(=O)N1CCN(c2nc(N[C@H](C)c3cnc4ccccc4c3)c3c(cnn3C(C)C(C)C)n2)CC1 (some centres unmarked) [Example 60]
2,6.00 to 7.00,CCC(CC)n1ncc2nc(N3CCN(C(C)=O)CC3)nc(N[C@H](C)c3cnc4ccc(F)cc4c3)c21 [Example 61]
3,6.00 to 7.00,CC(=O)N1CCN(c2nc(N[C@@H](c3cnc4ccccc4c3)C3CC3)c3c(cnn3C(C)C(C)C)n2)CC1 (some centres unmarked) [Example 62]
4,5.00 to 6.00,CCC(CC)n1ncc2nc(N3CCN(C(N)=O)CC3)nc(NCc3cnc4ccccc4c3)c21 [Example 64]
5,6.00 to 7.00,CCC(CC)n1ncc2nc(N3CCN(C(C)=O)CC3)nc(NC(c3cnc4ccc(F)cc4c3)C3CC3)c21 (centres unmarked) [Example 65]
6,6.00 to 7.00,CC(C)n1ncc2nc(N3CCN(C(N)=O)CC3)nc(N[C@@H](c3cnc4ccccc4c3)C3CC3)c21 [Example 66]
7,6.00 to 7.00,CC[C@H](C)n1ncc2nc(N3CCN(C(N)=O)CC3)nc(NC(C)c3cnc4cc(F)c(F)cc4c3)c21 (some centres unmarked) [Example 68]
8,7.00 to 9.00,CC[C@H](C)n1ncc2nc(N3CCN(C(N)=O)CC3)nc(N[C@@H](c3cnc4ccccc4c3)C3CC3)c21 [Example 69]
9,7.00 to 9.00,CC[C@@H](C)n1ncc2nc(N3CCN(C(N)=O)CC3)nc(N[C@@H](c3cnc4ccccc4c3)C3CC3)c21 [Example 70]
10,5.00 to 6.00,NC(=O)N1CCN(c2nc(N[C@@H](c3cnc4ccccc4c3)C3CC3)c3c(cnn3C3CCOCC3)n2)CC1 [Example 72]
11,6.00 to 7.00,CCC(CC)n1ncc2nc(-n3ccnn3)nc(N[C@@H](c3cnc4ccccc4c3)C3CC3)c21 [Example 74]
